Assay results published in PubChem BioAssay (NCI).
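At the GI50, growth is halved. The concentration for full growth arrest is given as TGI.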

Tests used:
Assay in all cases: growth of human tumour cells (NCI), 384-well format
[1] = test system: A549 NSCLC
[2] = test system: KM12 colon
[3] = test system: COLO 205 colon
[4] = test system: HL-60(TB) leukemia
[5] = test system: SF-295 CNS
[6] = test system: SNB-19 CNS
[7] = test system: IGROV1 ovarian
[8] = test system: BT-549 breast
[9] = test system: MALME-3M melanoma
[10] = test system: SK-MEL-5 melanoma
[11] = test system: MDA-MB-435 melanoma
[12] = test system: HT29 colon
[13] = test system: T-47D breast
[14] = test system: HOP-92 NSCLC
[15] = test system: OVCAR-5 ovarian
[16] = test system: SF-268 CNS
[17] = test system: SW-620 colon
[18] = test system: EKVX NSCLC
[19] = test system: LOX IMVI melanoma
[20] = test system: ACHN renal
[21] = test system: 786-0 renal
[22] = test system: HCC-2998 colon
[23] = test system: UACC-257 melanoma
[24] = test system: SR leukemia
[25] = test system: RPMI-8226 leukemia
[26] = test system: MCF7 breast
[27] = test system: OVCAR-3 ovarian
[28] = test system: NCI-H226 lung
[29] = test system: UO-31 renal
[30] = test system: MOLT-4 leukemia
[31] = test system: NCI-H322M lung
[32] = test system: NCI/ADR-RES ovarian
[33] = test system: SK-OV-3 ovarian
[34] = test system: CAKI-1 renal
[35] = test system: HS 578T breast
[36] = test system: HCT-15 colon
[37] = test system: MDA-MB-468 breast
[38] = test system: K-562 leukemia
[39] = test system: OVCAR-8 ovarian
[40] = test system: U251 glioblastoma
[41] = test system: OVCAR-4 ovarian
[42] = test system: SNB-75 CNS
[43] = test system: MDA-MB-231 breast
[44] = test system: UACC-62 melanoma
[45] = test system: RXF 393 renal
[46] = test system: HOP-62 NSCLC
[47] = test system: SN12C renal

`CC#CC(=O)N1CC[C@@H](n2c(=O)n(-c3ccc(Oc4ccccc4)cc3)c3c(N)ncnc32)C1` was tested, and the GI50 [1] was 34.8 µM, the TGI [1] was > 100 µM and the GI50 [2] was 27.4 µM. The TGI [2] was > 76.8 µM, the GI50 [3] was 37.1 µM and the TGI [3] was > 100 µM. For the same compound, the GI50 [4] was 13.9 µM, the TGI [4] was 26.9 µM and the GI50 [5] was 40.5 µM. For the same compound, the TGI [5] was > 100 µM, the GI50 [6] was 23.3 µM and the TGI [6] was > 64.3 µM. It also gave a GI50 [7] of 16.8 µM, a TGI [7] of 37.4 µM and a GI50 [8] of 16.6 µM. For the same compound, the TGI [8] was 33.9 µM, the GI50 [9] was 37.2 µM and the TGI [9] was > 100 µM. For the same compound, the GI50 [10] was 17.7 µM, the TGI [10] was 47 µM and the GI50 [11] was 30 µM. The TGI [11] was > 80.4 µM, the GI50 [12] was 32.2 µM and the TGI [12] was > 100 µM. It also gave a GI50 [13] of 11.9 µM, a TGI [13] of 33.1 µM and a GI50 [14] of 13.4 µM. For the same compound, the TGI [14] was > 59.6 µM, the GI50 [15] was > 64.3 µM and the TGI [15] was > 100 µM. The GI50 [16] was 25.1 µM, the TGI [16] was > 65 µM and the GI50 [17] was 25.6 µM. The TGI [17] was 55.9 µM, the GI50 [18] was 20.7 µM and the TGI [18] was > 77.2 µM. It also gave a GI50 [19] of 18.8 µM, a TGI [19] of 36.2 µM and a GI50 [20] of 31.6 µM. The TGI [20] was > 100 µM, the GI50 [21] was 23 µM and the TGI [21] was 66.1 µM. For the same compound, the GI50 [22] was 24.5 µM, the TGI [22] was 49.4 µM and the GI50 [23] was 19.7 µM. It also gave a TGI [23] of 67.2 µM, a GI50 [24] of 5.69 µM and a TGI [24] of 18.6 µM. For the same compound, the GI50 [25] was 7.89 µM, the TGI [25] was 23 µM and the TGI [26] was 80.6 µM. It also gave a GI50 [27] of 14.3 µM, a TGI [27] of 31.3 µM and a GI50 [28] of 21.8 µM. For the same compound, the TGI [28] was > 74.4 µM, the GI50 [29] was 31.8 µM and the TGI [29] was > 100 µM. For the same compound, the GI50 [30] was 3.13 µM, the TGI [30] was 12.7 µM and the GI50 [31] was 27.5 µM. For the same compound, the TGI [31] was > 100 µM, the GI50 [32] was 15.7 µM and the TGI [32] was 41.3 µM. The GI50 [33] was 33.5 µM, the TGI [33] was > 87.1 µM and the GI50 [34] was 23.5 µM. The TGI [34] was > 100 µM, the GI50 [35] was 22.1 µM and the TGI [35] was 55.9 µM. For the same compound, the GI50 [36] was 28.6 µM, the TGI [36] was > 89.5 µM and the GI50 [37] was 10.1 µM. It also gave a TGI [37] of 24.5 µM, a GI50 [38] of 12.5 µM and a TGI [38] of 38.4 µM. The GI50 [39] was 27.6 µM, the TGI [39] was > 100 µM and the GI50 [40] was 18.1 µM. For the same compound, the TGI [40] was 40.3 µM, the GI50 [41] was 29.5 µM and the TGI [41] was > 100 µM. For the same compound, the GI50 [42] was 28.6 µM, the TGI [42] was 77.2 µM and the GI50 [43] was 22 µM. The TGI [43] was > 67.8 µM, the GI50 [44] was 22.8 µM and the TGI [44] was > 100 µM. For the same compound, the GI50 [45] was 13.4 µM, the TGI [45] was 32.2 µM and the GI50 [46] was 21.3 µM. The TGI [46] was 61.8 µM, the GI50 [47] was 20.2 µM and the TGI [47] was > 90.9 µM.
